In ChEMBL document CHEMBL4819123, “Pulchinenosides: Correlation of surface activity-cytotoxicity and hepatocyte apoptosis mechanism study” (Bioorg Med Chem Lett, 2021):

Assays:
L02 [1] = test: Induction of apoptosis in human L02 cells assessed as late apoptotic cells at 10 uM by annexin-V-FITC/PI staining based flow cytometry analysis (reference value: 0.92 %); assay type: cell-based; conditions: l02, 10 µM
L02 [2] = test: Induction of apoptosis in human L02 cells assessed as decrease in ratio of Bcl-2/Bax at 8 to 12 ug/ml measured after 24 hrs by Western blot analysis; assay type: cell-based; conditions: l02, 24 h, dose 8-12 µg/ml
L02 [3] = test: Induction of cell cycle arrest in human L02 cells assessed as S phase accumulation at 6 uM by PI staining based flow cytometry analysis (reference value: 38.23 %); conditions: l02, 6 µM
L02 [4] = test: Induction of cell cycle arrest in human L02 cells assessed as S phase accumulation at 8 uM by PI staining based flow cytometry analysis (reference value: 38.23 %); conditions: l02, 8 µM
L02 [5] = test: Induction of cell cycle arrest in human L02 cells assessed as G2/M phase accumulation at 10 uM by PI staining based flow cytometry analysis (reference value: 8 %); conditions: l02, 10 µM
L02 [6] = test: Induction of apoptosis in human L02 cells assessed as increase in cleaved caspase 8 level at 8 to 12 ug/ml measured after 24 hrs by Western blot analysis; assay type: cell-based; conditions: l02, 24 h, dose 8-12 µg/ml
L02 [7] = test: Cytotoxicity against human L02 cells assessed as increase in LDH leakage by LDH assay; assay type: cell-based
L02 [8] = test: Induction of apoptosis in human L02 cells assessed as upregulation of FAS expression at 8 to 12 ug/ml measured after 24 hrs by Western blot analysis; assay type: cell-based; conditions: l02, 24 h, dose 8-12 µg/ml
L02 [9] = test: Cytotoxicity against human L02 cells by MTT assay; assay type: cell-based
L02 [10] = test: Induction of apoptosis in human L02 cells assessed as late apoptotic cells at 6 uM by annexin-V-FITC/PI staining based flow cytometry analysis (reference value: 0.92 %); assay type: cell-based; conditions: l02, 6 µM
L02 [11] = test: Induction of cell cycle arrest in human L02 cells assessed as G2/M phase accumulation at 8 uM by PI staining based flow cytometry analysis (reference value: 8 %); conditions: l02, 8 µM
L02 [12] = test: Induction of cell cycle arrest in human L02 cells assessed as G0/G1 phase accumulation at 8 uM by PI staining based flow cytometry analysis (reference value: 53.77 %); conditions: l02, 8 µM
L02 [13] = test: Induction of apoptosis in human L02 cells assessed as early apoptotic cells at 6 uM by annexin-V-FITC/PI staining based flow cytometry analysis (reference value: 3.81 %); assay type: cell-based; conditions: l02, 6 µM
L02 [14] = test: Induction of apoptosis in human L02 cells assessed as early apoptotic cells at 10 uM by annexin-V-FITC/PI staining based flow cytometry analysis (reference value: 3.81 %); assay type: cell-based; conditions: l02, 10 µM
L02 [15] = test: Induction of cell cycle arrest in human L02 cells assessed as G0/G1 phase accumulation at 6 uM by PI staining based flow cytometry analysis (reference value: 53.77 %); conditions: l02, 6 µM
L02 [16] = test: Induction of apoptosis in human L02 cells assessed as decrease in caspase 9 level at 8 to 12 ug/ml measured after 24 hrs by Western blot analysis; assay type: cell-based; conditions: l02, 24 h, dose 8-12 µg/ml
L02 [17] = test: Induction of cell cycle arrest in human L02 cells assessed as S phase accumulation at 10 uM by PI staining based flow cytometry analysis (reference value: 38.23 %); conditions: l02, 10 µM
L02 [18] = test: Induction of cell cycle arrest in human L02 cells assessed as G0/G1 phase accumulation at 10 uM by PI staining based flow cytometry analysis (reference value: 53.77 %); conditions: l02, 10 µM
L02 [19] = test: Induction of apoptosis in human L02 cells assessed as early apoptotic cells at 8 uM by annexin-V-FITC/PI staining based flow cytometry analysis (reference value: 3.81 %); assay type: cell-based; conditions: l02, 8 µM
L02 [20] = test: Induction of apoptosis in human L02 cells assessed as decrease in caspase 8 level at 8 to 12 ug/ml measured after 24 hrs by Western blot analysis; assay type: cell-based; conditions: l02, 24 h, dose 8-12 µg/ml
L02 [21] = test: Induction of cell cycle arrest in human L02 cells assessed as G2/M phase accumulation at 6 uM by PI staining based flow cytometry analysis (reference value: 8 %); conditions: l02, 6 µM
[22] = Hemolytic activity in rabbit erythrocytes; assay type: ADME, cell-based, Oryctolagus cuniculus, Erythrocyte; conditions: read-out: HD50 (the source's name)
[23] = Oil-water partition coefficient, logP of compound; assay type: physicochemical
L02 [24] = test: Induction of apoptosis in human L02 cells assessed as late apoptotic cells at 8 uM by annexin-V-FITC/PI staining based flow cytometry analysis (reference value: 0.92 %); assay type: cell-based; conditions: l02, 8 µM
L02 [25] = test: Induction of apoptosis in human L02 cells assessed as early apoptotic cells at 18 uM by annexin-V-FITC/PI staining based flow cytometry analysis (reference value: 3.81 %); assay type: cell-based; conditions: l02, 18 µM
L02 [26] = test: Induction of cell cycle arrest in human L02 cells assessed as G0/G1 phase accumulation at 26 uM by PI staining based flow cytometry analysis (reference value: 53.77 %); conditions: l02, 26 µM
L02 [27] = test: Induction of apoptosis in human L02 cells assessed as late apoptotic cells at 26 uM by annexin-V-FITC/PI staining based flow cytometry analysis (reference value: 0.92 %); assay type: cell-based; conditions: l02, 26 µM
L02 [28] = test: Induction of cell cycle arrest in human L02 cells assessed as S phase accumulation at 26 uM by PI staining based flow cytometry analysis (reference value: 38.23 %); conditions: l02, 26 µM
L02 [29] = test: Induction of cell cycle arrest in human L02 cells assessed as G0/G1 phase accumulation at 24 uM by PI staining based flow cytometry analysis (reference value: 53.77 %); conditions: l02, 24 µM
L02 [30] = test: Induction of apoptosis in human L02 cells assessed as late apoptotic cells at 18 uM by annexin-V-FITC/PI staining based flow cytometry analysis (reference value: 0.92 %); assay type: cell-based; conditions: l02, 18 µM
L02 [31] = test: Induction of apoptosis in human L02 cells assessed as late apoptotic cells at 24 uM by annexin-V-FITC/PI staining based flow cytometry analysis (reference value: 0.92 %); assay type: cell-based; conditions: l02, 24 µM
L02 [32] = test: Induction of cell cycle arrest in human L02 cells assessed as G2/M phase accumulation at 24 uM by PI staining based flow cytometry analysis (reference value: 8 %); conditions: l02, 24 µM
L02 [33] = test: Induction of cell cycle arrest in human L02 cells assessed as G2/M phase accumulation at 26 uM by PI staining based flow cytometry analysis (reference value: 8 %); conditions: l02, 26 µM
L02 [34] = test: Induction of cell cycle arrest in human L02 cells assessed as S phase accumulation at 24 uM by PI staining based flow cytometry analysis (reference value: 38.23 %); conditions: l02, 24 µM
L02 [35] = test: Induction of apoptosis in human L02 cells assessed as early apoptotic cells at 26 uM by annexin-V-FITC/PI staining based flow cytometry analysis (reference value: 3.81 %); assay type: cell-based; conditions: l02, 26 µM
L02 [36] = test: Induction of cell cycle arrest in human L02 cells assessed as G2/M phase accumulation at 18 uM by PI staining based flow cytometry analysis (reference value: 8 %); conditions: l02, 18 µM
L02 [37] = test: Induction of apoptosis in human L02 cells assessed as early apoptotic cells at 24 uM by annexin-V-FITC/PI staining based flow cytometry analysis (reference value: 3.81 %); assay type: cell-based; conditions: l02, 24 µM
L02 [38] = test: Induction of cell cycle arrest in human L02 cells assessed as S phase accumulation at 18 uM by PI staining based flow cytometry analysis (reference value: 38.23 %); conditions: l02, 18 µM
L02 [39] = test: Induction of cell cycle arrest in human L02 cells assessed as G0/G1 phase accumulation at 18 uM by PI staining based flow cytometry analysis (reference value: 53.77 %); conditions: l02, 18 µM

Compound | Activity (L02 [1]) | Activity (L02 [2]) | Activity (L02 [3]) | Activity (L02 [4]) | Activity (L02 [5]) | Activity (L02 [6]) | Activity (L02 [7]) | Activity (L02 [8]) | IC50 (L02 [9]) | Activity (L02 [10]) | Activity (L02 [11]) | Activity (L02 [12]) | Activity (L02 [13]) | Activity (L02 [14]) | Activity (L02 [15]) | Activity (L02 [16]) | Activity (L02 [17]) | Activity (L02 [18]) | HC50 [22] | logP [23] | also measured
C[C@@H]1O[C@@H](O[C@H]2[C@H](O[C@H]3CC[C@]4(C)[C@H]5CC=C6[C@@H]7CC(C)(C)CC[C@]7(C(=O)O)CC[C@@]6(C)[C@]5(C)CC[C@H]4C3(C)C)OC[C@H](O[C@@H]3O[C@H](CO)[C@@H](O)[C@H](O)[C@H]3O)[C@@H]2O)[C@H](O)[C@H](O)[C@H]1O [HEDERACOLCHISIDE A1] | 94.1% | Toxic | 29.95% | 32.66% | 1.88% | Toxic | Toxic | Toxic | 7.13 µM | 3.11% | 2% | 67.33% | 4.59% | 3.51% | 62.05% | Toxic | 58.44% | 39.69% | 3.24 µM | 0.0406 | Activity (L02 [19]): 17.6%; Activity (L02 [20]): Toxic; Activity (L02 [21]): 8%; Activity (L02 [24]): 38.6%
C[C@H]1O[C@@H](O[C@@H]2[C@@H](O)[C@@H](CO)O[C@H](O[C@@H]3[C@H](O)[C@@H](O)[C@H](O[C@H]4CC[C@]5(C)[C@H]6CC=C7[C@@H]8CC(C)(C)CC[C@]8(C(=O)O)CC[C@@]7(C)[C@]6(C)CC[C@H]5C4(C)C)O[C@@H]3CO)[C@@H]2O)[C@H](O[C@@H]2OC[C@@H](O)[C@@H](O)[C@@H]2O)[C@@H](O)[C@@H]1O | 92.2% | Toxic | 34.56% | 35.95% | 0.45% | Toxic | Toxic | Toxic | 9.57 µM | 7.91% | 3.8% | 60.25% | 7.62% | 1.92% | 57.44% | Toxic | 32.14% | 67.43% | 2.49 µM | -0.0114 | Activity (L02 [19]): 23.4%; Activity (L02 [20]): Toxic; Activity (L02 [21]): 8%; Activity (L02 [24]): 54.1%
C[C@@H]1O[C@@H](O[C@H]2[C@H](O[C@H]3CC[C@@]4(C)[C@@H](CC[C@]5(C)[C@@H]4CC=C4[C@@H]6CC(C)(C)CC[C@]6(C(=O)O)CC[C@]45C)[C@]3(C)CO)OC[C@H](O)[C@@H]2O)[C@H](O)[C@H](O)[C@H]1O [ALPHA-HEDERIN] | – | – | – | – | – | – | Toxic | – | 21 µM | – | – | – | – | – | – | – | – | – | 9.04 µM | 0.0672 | Activity (L02 [25]): 16.84%; Activity (L02 [26]): 52.42%; Activity (L02 [27]): 94.2%; Activity (L02 [28]): 40.88%; Activity (L02 [29]): 59.52%; Activity (L02 [30]): 8.18%; Activity (L02 [31]): 15.5%; Activity (L02 [32]): 8%; Activity (L02 [33]): 6.72%; Activity (L02 [34]): 32.48%; Activity (L02 [35]): 1.98%; Activity (L02 [36]): 8%; Activity (L02 [37]): 17%; Activity (L02 [38]): 31%; Activity (L02 [39]): 61%
